Measured values reported in PubChem BioAssay (NCI).
Values joined by “and” are separate entries in the source; they are usually repeats but may differ in a detail not shown here. Equal entries are not always repeated.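 Following 48 hours of exposure in 96-well plates, responses at five concentrations were used to interpolate endpoints linearly. GI50 = concentration required for 50% inhibition of growth. The concentration for full growth arrest is given as TGI.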

Experiments:
Assay in all cases: DTP human tumour cell line panel, 48 h
[1] = tested on: 786-0 renal
[2] = tested on: ACHN renal
[3] = tested on: HCC-2998 colon
[4] = tested on: HCT-15 colon
[5] = tested on: K-562 leukemia
[6] = tested on: MALME-3M melanoma
[7] = tested on: MDA-MB-231 breast
[8] = tested on: OVCAR-4 ovarian
[9] = tested on: SR leukemia
[10] = tested on: SW-620 colon

Row | SMILES | GI50 [1] [µM] | TGI [1] [µM] | GI50 [2] [µM] | TGI [2] [µM] | GI50 [3] [µM] | TGI [3] [µM] | GI50 [4] [µM] | TGI [4] [µM] | GI50 [5] [µM] | TGI [5] [µM] | GI50 [6] [µM] | TGI [6] [µM] | GI50 [7] [µM] | TGI [7] [µM] | GI50 [8] | TGI [8] [µM] | GI50 [9] [µM] | TGI [9] [µM] | GI50 [10] [µM] | TGI [10] [µM]
1 | NC(=O)c1cnc(N[C@@H]2CCCC[C@@H]2N)nc1Nc1cccc(-n2nccn2)c1 | 5.57 | 17.6 | 2.69 | 11.1 | 1.99 | 4.82 | 3.81 | 14.9 | 3.94 | 14.7 | 3.06 | 10.4 | 4.13 | 17.3 | 7.01 µM | 19.6 | 2.23 | 6.5 | 3.81 | 13.4
2 | COc1ccccc1-[n+]1cc(-c2ccc(-c3ccccc3)cc2)n2c1CCCCC2 | 1.31 | 11.5 | 2.45 | 11.3 | 0.318 | 12.6 | 4.35 | 20.2 | 0.173 | 13.1 | 0.158 | 0.869 | 0.276 | 2.39 | 0.116 µM | 12.5 | 0.304 | 24.1 | 0.587 | 12.7
3 | CCCCn1c2cc(OCc3cn(-c4ccc(Cl)cc4)nn3)ccc2c2ccnc(C)c21 | 5.76 | 11 | 5.06 | 10.3 | 9.58 | 30.4 | 6.74 | > 33.3 | 2.89 | > 33.3 | 5.98 | 14.5 | 7.26 | 24.6 | 5.95 µM | 25.5 | 5.2 | 22.4 | 11 | > 33.3
4 | COc1ccc(-n2c(SCc3cc(OC)c(OC)c(OC)c3)nc3ccc(C)cc3c2=O)c(OC)c1 | 4.99 | > 100 | 7.49 | > 100 | 6.75 | > 100 | 4.2 | > 100 | 2.99 | > 100 | 2.97 | > 100 | 4.15 | > 100 | 4.65 µM | > 100 | 1.87 | 25.5 | 4.49 | > 100
5 | O=C(/C=C/c1cccnc1)NCCCCC1CCN(C(=O)c2ccccc2)CC1 | > 100 | > 100 | > 100 | > 100 |  | > 100 | < 0.01 | > 100 | < 0.01 | > 100 | > 86.5 | > 100 | > 100 | > 100 | > 66 µM and 26.2 µM | > 100 |  | > 100 | < 0.01 | > 100
